Measured values taken from US20090024021A1, “Methods and Systems for Using Transcranial Magnetic Stimulation and Functional Brain Mapping for Examining Cortical Sensitivity, Brain Communication, and Effects of Medication” (priority 2002, published 2009).
Entries after “also recorded” stand apart in the source; their conditions may differ.

Assays:
left motor cortex = experiment: Interleaved TMS/phMRI (BOLD fMRI) with TMS over motor cortex; assay type: in vivo, human; details: for Voxels, effect of LTG (between day) / Z-score, effect of LTG (between day): Motor Cortex Stimulation, Placebo-LTG; for Z-score, effect of LTG (between day): p < .001
Experimental: (§1) Study design: We performed a randomized, double-blind, crossover trial involving two visits at least one week apart (FIG. 8). […] Serum LTG levels, RMTs, and interleaved TMS/phMRI images during both motor and then prefrontal TMS were then gathered for each subject. One week later they received LTG or placebo again, followed by identical RMT and interleaved TMS/phMRI studies.
Combined TMS and MRI: Immediately following RMT determination, interleaved TMS/phMRI acquisitions were performed in a Picker EDGE 1.5 T MR scanner with actively shielded magnet and high-performance gradients (27 mT/m, 72 T/m/sec) using a typical gradient echo, echo planar imaging (EPI) fMRI sequence (tip angle=90, TR=3 sec, FOV 27.0 cm, fifteen 7 mm thick slices, 1 mm gap). TMS was delivered using a Dantec MagPro with a special nonferromagnetic TMS coil of figure-8 design with an 8-meter cable (Dantec Medical A/S, Skovlunde, Denmark) and a room set up identical to prior TMS/fMRI studies from our group. TMS pulses and the fMRI sequence were interleaved as described before^21. Each cycle, illustrated in FIG. 9, consisted of six 21-sec sub-cycles—four Test and two task (100% RMT stimulation and 120% RMT stimulation). During each sub-cycle, the scanner acquired seven sets of 15 transverse images. During the task sub-cycles the TMS was triggered 100 ms after every […] image acquisition to produce a TMS stimulation rate of 1 Hz. The entire TMS/fMRI sequence lasted 882 sec (14.7 min).
TMS Coil Placement in the MRI scanner: Motor cortex: Before being placed into the MRI scanner, subjects had their resting motor threshold (RMT) quickly determined with the Dantec TMS while sitting on the MRI gantry. For many reasons (different capacitors, coil design, length of cable, MRI filter), the RMT determined with the Magstim in the BSL was not the same RMT needed inside the MRI scanner with the Dantec. After this new MRI RMT was determined, the TMS coil was rigidly mounted in the MR head coil with a specially designed TMS coil-holder, adjustable in six dimensions^22. Subjects wore swim caps and special earplugs. With the head coil on the gantry outside the scanner bore, subjects inserted their head into the head coil and adjusted their position while the TMS coil was intermittently pulsed with 100% RMT. Subjects adjusted their head until pulsing the coil caused visible movement of the contralateral (right) hand APB (3 out of 6). As soon as a subject's new MRI RMT-correct scalp location was determined, the holder's six dimensions and earplugs were locked. These head holder settings and RMT were recorded and used with the second visit. During the second MRI visit a week later, the headholder was set with the previous week's coordinates for that subject, and the previous RMT was used for the second visit.
Individual fMRI Data Analyses: MR scans were transferred into ANALYZE format and then further processed on Sun workstations (Sun Microsystems, Palo Alto, Calif.). Scans were checked using MEDx3.3 (Sensor Systems Inc, Sterling, Va.) for movement across runs, and then were coregistered to a mean image using automatic image registration. For all subjects, movement across the 14.7-minute study was less than 2 mm in all 3 axes. After correction of motion, we used a delayed boxcar model, employed a high-pass filter to remove signal drift, cardiac and respiratory effects, and other low frequency artifacts. Then, we spatially transformed each subject's data into the Talairach Atlas (input voxel dimensions, 2.1×2.1×8 mm, to output voxel dimensions, 4×4×4 mm), smoothed (4×2 mm) the data and generated z map with the Statistical Parametric Mapping (SPM) 96 module in MEDx3.3. We assumed an uncorrected F threshold UF P>0.99 to preserve as many voxels as possible for the cluster analysis.
Group fMRI Data Analyses: All subject's unthresholded z maps were combined based on comparison of condition (TMS vs Rest), intensity (100% RMT-TMS vs 120% RMT-TMS), visit (LTG vs Placebo). […]

[1] = Safety and tolerability in the crossover trial; assay type: in vivo, human; details: single oral dose of 325 mg LTG; healthy young men
Experimental: as §1
General Procedure: After arriving at the laboratory in the early afternoon, baseline RMT was determined and baseline plasma levels of LTG were drawn. They were then given a single oral dose of 325 mg LTG or placebo. They then waited quietly for 3 hours. Three hours after taking the oral pill, RMT was determined and serum plasma levels were again drawn.

Nc1nnc(-c2cccc(Cl)c2Cl)c(N)n1 [LTG, Lamotrigine]
number of active voxels in the motor cortex underneath the TMS coil, compared with placebo (left motor cortex; 120% RMT minus rest over motor cortex, 10 subjects, Wilcoxon p=0.05): significantly decreased | Z-score, region of activation (left motor cortex; LTG day, within day, n = 10, 100% RMT-Rest, Left cingulate gyrus (BA 32), Talairach −4,32,28): 3.97 | Z-score, region of activation (left motor cortex; LTG day, within day, n = 10, 100% RMT-Rest, Left insula (BA 13), Talairach −36,20,12): 3.98 | Z-score, region of activation (left motor cortex; LTG day, within day, n = 10, 100% RMT-Rest, Left middle frontal gyrus (BA 46), Talairach −44,40,24): 4.59 | Z-score, region of activation (left motor cortex; LTG day, within day, n = 10, 100% RMT-Rest, Right insula (BA 13), Talairach 36,8,12): 4.26 | Z-score, region of activation (left motor cortex; LTG day, within day, n = 10, 100% RMT-Rest, Right middle frontal gyrus (BA 6), Talairach 32,8,52): 4.06 | Z-score, region of activation (left motor cortex; LTG day, within day, n = 10, 100% RMT-Rest, Right postcentral gyrus (BA 3), Talairach 52,−16,40): 3.18 | Z-score, region of activation (left motor cortex; LTG day, within day, n = 10, 100% RMT-Rest, Right precentral gyrus, Talairach 40,−4,32): 4.31 | Region of activation (left motor cortex; LTG day, within day, n = 10, 120% RMT-100%): No activity | Z-score, region of activation (left motor cortex; LTG day, within day, n = 10, 120% RMT-Rest, Left medial frontal gyrus (BA 6), Talairach −4,60,0): 4.06 | Z-score, region of activation (left motor cortex; LTG day, within day, n = 10, 120% RMT-Rest, Left postcentral gyrus (BA 2), Talairach −36,0,4): 4.60 | Z-score, region of activation (left motor cortex; LTG day, within day, n = 10, 120% RMT-Rest, Left superior temporal gyrus, Talairach −60,8,24): 3.14 | Z-score, region of activation (left motor cortex; LTG day, within day, n = 10, 120% RMT-Rest, Left thalamus, Talairach −32,8,−24): 6.46 | Z-score, region of activation (left motor cortex; LTG day, within day, n = 10, 120% RMT-Rest, Right cingulate gyrus, Talairach 4,28,−16): 4.33 | Z-score, region of activation (left motor cortex; LTG day, within day, n = 10, 120% RMT-Rest, Right middle frontal gyrus (BA 9), Talairach 48,36,12): 4.62 | Z-score, region of activation (left motor cortex; LTG day, within day, n = 10, 120% RMT-Rest, Right superior temporal gyrus (BA 38), Talairach 40,−12,4): 3.14 | Voxels, effect of LTG (between day) (left motor cortex; Cerebellum, Right): 70 | Z-score, effect of LTG (between day) (left motor cortex; Cerebellum, Right, Talairach 13,−46,−23): 3.34 | Voxels, effect of LTG (between day) (left motor cortex; Left Precentral gyrus (underneath TMS coil)): 82 | Z-score, effect of LTG (between day) (left motor cortex; Left Precentral gyrus (underneath TMS coil), Talairach −32,−24,52): 3.87 | Voxels, effect of LTG (between day) (left motor cortex; Posterior Cingulate, Left): 93 | Z-score, effect of LTG (between day) (left motor cortex; Posterior Cingulate, Left, Talairach −1,−25,50): 3.95 | Voxels, effect of LTG (between day) (left motor cortex; Precuneus, Left): 132 | Z-score, effect of LTG (between day) (left motor cortex; Precuneus, Left, Talairach −1,−62,50): 3.48 | TMS-induced activation in the motor cortex (underneath the coil) and other regions, compared to placebo (left motor cortex; formal between-day analysis, group data in 10 subjects): significantly less; also recorded: reduced | % BOLD signal change in motor cortex compared with placebo (left motor cortex; left primary motor cortex beneath the coil, 10 subjects, ANOVA F=11.89, p=0.007): significantly decreased | adverse effects of the drug treatment or the stimulation [1]: None of the subjects reported experiencing adverse effects
